This is an account of results in PubChem BioAssay (NCI).

Test systems include HOP-18 NSCLC; DMS 273 small cell lung; SNB-78 CNS; DMS 114 small cell lung; XF 498 CNS.
What all share (test): NCI-60 cell line screen, 48 h

Several values for one entry are separate records, joined by “and”; a condition that tells them apart may be missing. Equal entries are not always repeated.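 Where inhibition never reached the appropriate level, the endpoint shown equals the highest concentration tested. Otherwise, values were interpolated linearly from a five-concentration, 48-hour dose response in 96-well plates. The concentration for full growth arrest is given as TGI.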

For `COC(=O)C1C2C=CC(C2)N1[C@@H](C)c1ccccc1` (some centres undefined), the TGI in the assay on HOP-18 NSCLC, with DMS 273 small cell lung and with SNB-78 CNS was > 100 µM each time.
For `COc1ccc(C(C#N)NNc2nc(C)cc(=O)[nH]2)cc1OC` (centres undefined), the TGI in the assay on HOP-18 NSCLC, in the assay with DMS 273 small cell lung, with DMS 114 small cell lung and in the assay with SNB-78 CNS was > 100 µM throughout.
As for `CC(=O)NC1=C(C)C(=O)c2c(nc3n2CCC3O)C1=N` (centres undefined), the TGI with HOP-18 NSCLC came to 31.8 µM; with DMS 273 small cell lung, 33.2 µM; with DMS 114 small cell lung, 13.4 µM; in the assay with SNB-78 CNS it was 8.56 µM; in the assay with XF 498 CNS it was 9.04 µM.
For the compound `COc1ccc(C2S/C(=C\c3ccc(O)cc3)C(=O)N2NC(=O)Cc2ccccc2)cc1` (centres undefined), the TGI in the assay on HOP-18 NSCLC, in the assay with DMS 273 small cell lung and in the assay on DMS 114 small cell lung was > 100 µM in each case.
For `O=C(CSC(=S)N1CCOCC1)Nc1nc2c(s1)CCCC2`, the TGI with DMS 273 small cell lung, with DMS 114 small cell lung, in the assay with SNB-78 CNS and in the assay with XF 498 CNS was > 100 µM in each case.
For `CC(=O)OC1c2ccccc2CCCCCCC12OCCO2` (centres undefined), the TGI in the assay with HOP-18 NSCLC, with DMS 114 small cell lung and with SNB-78 CNS was > 100 µM throughout.
For `CC(C)=CCSC1CC2C(CC1(C)O)C2(C)C` (centres undefined), the TGI in the assay with DMS 273 small cell lung was 29.9 µM and 21.5 µM; in the assay on DMS 114 small cell lung, 30.7 µM and 21.7 µM; in the assay with SNB-78 CNS it was 41.2 µM and 26.3 µM; in the assay with XF 498 CNS, 18 µM and 16.6 µM.
For `NC(=O)N1N=C2c3ccccc3SC[C@H]2[C@@H]1c1ccccc1`, the TGI was 79.9 µM with DMS 114 small cell lung, 93.3 µM in the assay on SNB-78 CNS and 56.8 µM in the assay with XF 498 CNS.
For the compound `CC(C)C1CC(O)O[C@@H]([C@@H](C)[C@H]2CC(=O)[C@@H]3[C@@H]4[C@@H](O)[C@H](O)[C@H]5[C@@H](O)[C@H](O)CC[C@]5(C)[C@H]4CC[C@]23C)C1` (some centres undefined), the TGI in the assay on DMS 273 small cell lung is > 100 µM; in the assay with SNB-78 CNS, > 100 µM; with XF 498 CNS it was 56 µM.
As for `CCC(CC)n1c(C)nc2c1C(=O)c1ccccc1C2=O`, the TGI in the assay with DMS 273 small cell lung and in the assay on SNB-78 CNS was > 100 µM throughout.
